Test results reported in paper PMC10855164, “Ligand-Based Design of Selective Peptidomimetic uPA and TMPRSS2 Inhibitors with Arg Bioisosteres” (International Journal of Molecular Sciences, 2024).

Columns and labels:
Assay type in all cases: biochemical
thrombin = biological target: T1, thrombin (Homo sapiens, UniProt P00734); experiment: fluorometric enzyme inhibition assay, thrombin (Z-Gly-Gly-Arg-AMC); conditions: from IC50 by Cheng-Prusoff; n.a. = not active, <80% inhibition at 20 µM
T1 construct: purchased Bio-techne
Experimental: (§1) The inhibitory activity of the synthesized compounds towards the respective main- and off-target proteases was measured via fluorometric and colorimetric assays. Thus, fluorogenic AMC- or colorimetric pNA-based substrates with a peptide sequence suitable for the tested protease were utilized (see Supplementary Figure S2). At first, the compounds were screened against […] proteases (uPA, TMPRSS2, matriptase, tPA, thrombin, factor Xa) at 20 µM, and a cut-off value of 80% inhibition at this concentration was set, for the differentiation between nonactive (n.a.) and active inhibitors. Due to the reversible inhibition mechanism of the ketobenzothiazole derivates, the IC50 values were determined with Graphpad Prism 9, and afterwards converted to the corresponding Ki values for an adequate comparison between the inhibitory activities of the compounds toward all tested proteases. The Ki values were calculated using the Cheng–Prusoff equation [43].
(§2) Fluorometric inhibition assays
(§3) The inhibitory activities of the compounds against the proteases were determined by enzyme inhibition assays with fluorogenic or colorimetry-based substrates. The fluorescence, caused by cleaved AMC from the fluorogenic substrates (uPA, matriptase, TMPRSS2, thrombin), was measured in white flat-bottom 96-well plates from Greiner Bio-One using a Tecan Infinite F200 Pro plate reader. The absorption, caused by cleaved pNA from colorimetric substrates (factor Xa and tPA), was measured in transparent flat-bottom 96-well plates from Greiner Bio-One using a Tecan Spark 10M plate reader. All measurements with the main-target proteases (uPA and TMRPSS2) were performed as triplicates and with the off-target proteases (matriptase, factor Xa, tPA, thrombin) as duplicates. The substrates and the compounds were prepared as stock solutions in DMSO. Each well contained a total volume of 200 µL, consisting of 185 µL buffer, 5 µL inhibitor in DMSO or pure DMSO as negative control, 5 µL substrate in DMSO and 5 µL enzyme solution in buffer. Dilution series were prepared for the determination of the inhibition constants. The fluorescence signal and absorbance were measured every 30 s for 10 min at 25 or 37 °C with the corresponding excitation/emission (λex = 380 nm / λem = 460 nm) and absorbance (λabs = 405 nm) wavelengths, depending on the targeted protease. IC50 values for the reversible inhibitors were calculated with Graphpad Prism 9 by fitting the remaining enzymatic activity to the four parameter IC50 equation with Y [%] as the residual enzyme activity , Ymax as the maximum value of the dose response curve at inhibitor concentrations [I] = 0 µM, Ymin as the minimum value at high inhibitor concentrations and s as the hill coefficient.[1] The fluorescence progress curves and sigmoidal dose-response curve for inhibition of uPa by compound 38 is shown exemplary in Figure S2. […]
(§4) Due to the dependence of the IC50 value on the substrate affinity and concentration, the Ki values were calculated with the Cheng-Prusoff equation, using the final substrate concentration [S] and the Michaelis-Menten constant KM, (2) for appropriate comparison of the inhibitory activities to the other enzymes and inhibitors.[1]
(§5) KM values were determined by fitting to the Michaelis-Menten equation using Graphpad Prism 9 with v [ΔF/min] as the substrate hydrolysis rate, vmax as the maximum slope of the dose-response curve, and the substrate [S] concentration.[1] The different substrates were serially diluted in DMSO. The measurement was done in analogy to the determination of the inhibitory activity, but with 5 µL pure DMSO instead of inhibitor solution. […]
(§6) The following buffers and substrates were used for the respective assays: uPA (50 mM Tris HCl pH = 7.9, 150 mM […]
(§7) TMPRSS2 (25 mM Tris HCl pH = 8.0, 150 mM NaCl, 5 mM CaCl2, 0.001% TX-100, 100 µM Boc-Gln-Ala-Arg-AMC (KM: 68.63 ± 6.64 µM), 25 °C, 3 nM TMPRSS2)[3]; matriptase (50 mM Tris HCl pH = 8.0, 150 mM NaCl, 5 mM CaCl2, […]

factor Xa = biological target: T2, factor Xa (Homo sapiens, UniProt P00742); experiment: colorimetric enzyme inhibition assay, factor Xa (Z-D-Arg-Gly-Arg-pNA); conditions: from IC50 by Cheng-Prusoff; n.a. = not active, <80% inhibition at 20 µM
T2 construct: purchased Bio-techne
T2 sequence (P00742 235-488 limits assumed): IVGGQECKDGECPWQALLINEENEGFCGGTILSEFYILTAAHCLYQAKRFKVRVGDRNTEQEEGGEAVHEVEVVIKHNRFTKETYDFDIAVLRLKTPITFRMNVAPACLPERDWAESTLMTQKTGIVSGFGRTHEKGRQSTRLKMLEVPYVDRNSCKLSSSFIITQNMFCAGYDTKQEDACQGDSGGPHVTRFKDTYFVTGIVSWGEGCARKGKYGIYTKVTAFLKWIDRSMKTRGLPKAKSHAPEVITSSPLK
T2 sequence (P00742 41-179 partner limits assumed): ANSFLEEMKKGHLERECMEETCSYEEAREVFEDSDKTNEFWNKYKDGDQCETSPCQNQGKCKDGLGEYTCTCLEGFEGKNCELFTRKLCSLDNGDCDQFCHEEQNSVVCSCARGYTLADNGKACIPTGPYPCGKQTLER
Experimental: as §1, §2, §3, §4, §5, §6, §7

matriptase = biological target: T3, matriptase (Homo sapiens, UniProt Q9Y5Y6); experiment: fluorometric enzyme inhibition assay, matriptase (Boc-Leu-Arg-Arg-AMC); conditions: for Ki: from IC50 by Cheng-Prusoff, n.a. = not active, <80% inhibition at 20 µM
T3 construct: catalytic domain of matriptase (uniport: Q9Y5Y6 aa 596–855); hexa-histidine (N); made in house; host or cells: Escherichia coli BL21 Gold (DE3)
T3 sequence (Q9Y5Y6 596-855): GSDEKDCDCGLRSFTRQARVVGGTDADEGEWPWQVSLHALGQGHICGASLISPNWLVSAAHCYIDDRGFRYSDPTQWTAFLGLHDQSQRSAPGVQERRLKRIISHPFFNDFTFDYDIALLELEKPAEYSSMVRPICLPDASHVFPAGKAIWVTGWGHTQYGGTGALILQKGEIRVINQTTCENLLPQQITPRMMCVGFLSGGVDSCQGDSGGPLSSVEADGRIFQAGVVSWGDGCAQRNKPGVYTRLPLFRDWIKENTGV
Experimental: as §1, §2, §3, §4, §5, §6, §7

TMPRSS2 = biological target: T4, TMPRSS2 (Homo sapiens, UniProt O15393); experiment: fluorometric enzyme inhibition assay, TMPRSS2 (Boc-Gln-Ala-Arg-AMC); conditions: for Ki: from IC50 by Cheng-Prusoff, n.a. = not active, <80% inhibition at 20 µM
T4 construct: purchased Cusabio
T4 sequence (O15393 whole entry): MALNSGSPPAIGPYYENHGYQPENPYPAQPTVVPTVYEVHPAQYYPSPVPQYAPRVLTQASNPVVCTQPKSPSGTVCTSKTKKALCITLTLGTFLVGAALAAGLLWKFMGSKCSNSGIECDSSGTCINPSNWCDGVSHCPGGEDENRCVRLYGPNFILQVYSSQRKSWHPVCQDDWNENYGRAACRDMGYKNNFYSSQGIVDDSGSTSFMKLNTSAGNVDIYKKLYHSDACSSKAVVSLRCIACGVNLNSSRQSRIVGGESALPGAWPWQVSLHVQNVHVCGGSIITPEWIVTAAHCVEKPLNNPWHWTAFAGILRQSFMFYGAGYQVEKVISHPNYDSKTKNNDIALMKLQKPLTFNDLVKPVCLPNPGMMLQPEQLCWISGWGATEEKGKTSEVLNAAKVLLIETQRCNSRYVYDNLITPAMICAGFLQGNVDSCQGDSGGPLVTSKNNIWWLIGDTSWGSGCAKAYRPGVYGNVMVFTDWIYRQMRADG
Experimental: as §1, §2, §3, §4, §5, §6, §7

tPA = biological target: T5, tPA (Homo sapiens, UniProt P00750); experiment: colorimetric enzyme inhibition assay, tPA (N-methylsulfonyl-D-Phe-Gly-Arg-pNA); conditions: from IC50 by Cheng-Prusoff; n.a. = not active, <80% inhibition at 20 µM
T5 construct: purchased Sigma Aldrich
T5 sequence (P00750 36-562): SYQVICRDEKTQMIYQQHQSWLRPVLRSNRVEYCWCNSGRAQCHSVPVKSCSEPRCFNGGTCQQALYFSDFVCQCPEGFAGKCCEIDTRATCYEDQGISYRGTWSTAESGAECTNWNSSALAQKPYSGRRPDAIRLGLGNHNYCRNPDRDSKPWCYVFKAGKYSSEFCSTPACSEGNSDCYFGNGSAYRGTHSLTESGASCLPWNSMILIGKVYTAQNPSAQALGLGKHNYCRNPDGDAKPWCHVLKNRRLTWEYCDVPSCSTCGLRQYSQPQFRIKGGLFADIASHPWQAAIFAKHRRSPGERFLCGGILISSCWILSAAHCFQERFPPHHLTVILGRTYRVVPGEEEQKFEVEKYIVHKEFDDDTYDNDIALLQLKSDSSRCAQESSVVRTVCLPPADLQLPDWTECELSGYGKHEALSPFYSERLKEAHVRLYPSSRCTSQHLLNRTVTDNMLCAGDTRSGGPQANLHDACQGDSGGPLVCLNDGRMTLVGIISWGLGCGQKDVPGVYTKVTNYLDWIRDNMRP
Experimental: as §1, §2, §3, §4
KM values were determined by fitting to the Michaelis-Menten equation using Graphpad Prism 9 with v [ΔF/min] as the substrate hydrolysis rate, vmax as the maximum slope of the dose-response curve, and the substrate [S] concentration.[1] The different substrates were serially diluted in DMSO. […]

Row | Structure (SMILES) | Ki Thrombin (thrombin) | Ki Factor Xa (factor Xa) | Ki (matriptase) | Selectivity index [SI] Matriptase (matriptase; quotient Ki matriptase / Ki uPA) | Ki (TMPRSS2) | Selectivity index [SI] TMPRSS2 (TMPRSS2; quotient Ki TMPRSS2 / Ki uPA) | Ki tPA (tPA) | Selectivity index [SI] Matriptase (matriptase; quotient Ki matriptase / Ki TMPRSS2)
1 | CC(=O)NCC(=O)NC(C(=O)NC(C)C(=O)NC(CC1CCC(NC(=N)N)CC1)C(=O)c1nc2ccccc2s1)C(C)O (stereo not shown) [Compound 38] | did not inhibit | did not inhibit | 626 ± 74 nM | 16 | 73 ± 16 nM | 1.8 | did not inhibit | 
2 | CC(=O)N[C@@H](Cc1ccccc1)C(=O)N[C@@H](Cc1ccc(NC(=N)N)cc1)C(=O)c1nc2ccccc2s1 [Compound 33] |  |  | 1440 ± 90 nM |  | 5 ± 2 nM |  |  | 289
